Measurements: article PMC6832134, “Discovery of Novel Integrase Inhibitors Acting outside the Active Site Through High-Throughput Screening” (Molecules, 2019)

Key:
in vitro = conditions: human
[1] = biological target: T1, isolated catalytic core domain (CCD) of IN (Human immunodeficiency virus type 1 group M subtype B, UniProt P12497); experiment: Disintegration reaction, isolated catalytic core domain; type: biochemical, HIV-1; conditions: branched substrate
T1 construct: the isolated catalytic core domain (CCD) (51–212); made in house; host or cells: E. coli RosettaII
From the text: Conventional IN strand transfer inhibitors bind at the interface created by the protein, viral DNA, and two magnesium cations in the catalytic site of the enzyme. Because stilbene disulfonic acid derivatives inhibit both 3′-P and ST with a similar efficiency, they may act outside the IN catalytic site. To determine if IN domains other than the catalytic core domain (CCD) are involved in the inhibitory activity of NSC34931, we tested this compound on disintegration, the only IN-mediated reaction that can be catalyzed by the isolated CCD. Disintegration is equivalent to a reverse-ST reaction (Figure 3A). Using a branched substrate, the WT enzyme as well as the isolated CCD catalyzed disintegration with similar efficiency (Figure 3B). NSC34931 inhibited disintegration catalyzed by the full-length IN at concentrations above 4.1 µM (Figure 3B,C). However, NSC34931 was unable to inhibit disintegration catalyzed by the CCD at concentrations up to 37 µM (Figure 3B,C). These experiments indicate that the N-terminal domain (NTD) and/or the C-terminal domain (CTD) are essential for IN inhibition by NSC34931.
Figure 3 Inhibition of the disintegration reaction by NSC34931. (A) Schematic representation of the disintegration reaction. […]

HIV-1 integrase = biological target: T2, HIV-1 integrase (Human immunodeficiency virus type 1 group M subtype B, UniProt P12497); experiment: Electrochemiluminescent integrase strand transfer assay (BioVeris), high-throughput screen; type: biochemical; conditions: single dose 10 µM; read-out: inhibition of IN ST activity
T2 construct: 250 nM of recombinant HIV-1 integrase; made in house; host or cells: E. coli RosettaII
Method: To enable a high-throughput screening, we used the ST assay developed by BioVeris. This proprietary plate-based assay measured stand transfer using electrochemiluminescent technology. First, we validated the assay using HIV-1 IN in the presence of DMSO, or increasing concentrations of a known inhibitor, MA-DKA (also known as 118-D-24, Figure 1A). […] Next, we used MA-DKA as a control in every test plate and screened a large library of molecules. Overall, 3095 compounds were tested as part of the NCI Developmental Therapeutics Program’s small molecule plated sets from the Open Chemical Repository Collection. […] A single dose testing (10 µM) enabled the identification of 130 molecules that inhibited ST by over 50% (light dashed line, Figure 1A). […] NSC153308 is a 2-phenacylsulfanylacetic acid that resembles the diketo acid chemotype. On the other side, NSC119889 is a xanthene derivative similar to V-165 [6]. […] However, the purpose of this study was to identify a new chemotype that might act on IN via a novel mechanism, distinct from known active site inhibitors. Accordingly, we retrieved the chemical structure of the 130 hits and looked for a chemical pattern different from that of conventional strand transfer inhibitors.
This electrochemiluminescent plate-based assay was performed using a BioVeris M-SERIES Analyzer (Gaithersburg, MD, USA). DNA substrates were obtained from BioVeris and used according to the manufacturer’s recommendations. Briefly, a biotinylated donor DNA was incubated for 30 min at 37 °C in the presence of 250 nM of recombinant HIV-1 integrase. Complexes were bound to paramagnetic streptavidin-coated beads (M-280 Dynabeads). After addition of the drug, the integration reaction was initiated by addition of a ruthenium-labeled target DNA. The reaction was carried out for 60 min at 37 °C, before reading on the BioVeris M-SERIES Analyzer.

HIV-1 = test system: HIV-1; parameters: method as in http://dtp.nci.nih.gov, [7]; conditions: ref http://dtp.nci.nih.gov, [7]; cited from earlier work
HIV-1 IN mutant Y143R = biological target: T3, HIV-1 IN mutant Y143R (Human immunodeficiency virus type 1 group M subtype B, UniProt P12497, Y1290R); experiment: Gel-based IN strand transfer assay, Y143R mutant; type: biochemical
T3 construct: RAL-resistant HIV-1 mutant integrases; made in house; host or cells: E. coli RosettaII
Method: IN reactions were carried out by adding drugs or an equivalent volume of 100% DMSO (dimethyl sulfoxide, used as the drug solvent) to a mixture of 20 nM duplex DNA (21T/21B) and 400 nM IN in 50 mM MOPS pH 7.2, 7.5 mM MgCl2, and 14 mM 2-mercaptoethanol. Reactions were performed at 37 °C for 2 h and quenched by addition of an equal volume of loading buffer [formamide containing 1% SDS (sodium dodecyl sulfate), 0.25% bromophenol blue, and xylene cyanol]. Reaction products were separated in 16% polyacrylamide denaturing sequencing gels. Dried gels were visualized using a Typhoon 8600 (GE Healthcare, Piscataway, NJ, USA). Densitometric analyses were performed using the ImageQuant 5.1 software from GE Healthcare. Data analyses (linear regression, IC50 determination, and standard deviation) were performed using Prism 6.05 software from GraphPad.

With `O=S(=O)(O)c1cc(/N=N/c2cc(S(=O)(=O)O)c3ccccc3c2O)ccc1/C=C/c1ccc(/N=N/c2cc(S(=O)(=O)O)c3ccccc3c2O)cc1S(=O)(=O)O` [NSC34931] the CC50 (in vitro) was 59 µM, the “concentration up to which disintegration is not inhibited” value [1] was > 37 µM and the inhibition at 10 µM (HIV-1 integrase) was 77.8%. The “antiviral activity in HIV-1 cytopathic assay” value (HIV-1) was “antiviral” and the IC50 (HIV-1 IN mutant Y143R) was 240 nM.
